This note sets out measurements from ChEMBL document CHEMBL5291721, “A preclinical secondary pharmacology resource illuminates target-adverse drug reaction associations of marketed drugs” (Nat Commun, 2023).

The target of assay [1] is Beta-1 adrenergic receptor (Homo sapiens, UniProt P08588). The format is functional, cell-based.
The target in assay [2] is T1, Type-2 angiotensin II receptor (Homo sapiens, UniProt P50052).
T1 sequence (P50052 whole entry): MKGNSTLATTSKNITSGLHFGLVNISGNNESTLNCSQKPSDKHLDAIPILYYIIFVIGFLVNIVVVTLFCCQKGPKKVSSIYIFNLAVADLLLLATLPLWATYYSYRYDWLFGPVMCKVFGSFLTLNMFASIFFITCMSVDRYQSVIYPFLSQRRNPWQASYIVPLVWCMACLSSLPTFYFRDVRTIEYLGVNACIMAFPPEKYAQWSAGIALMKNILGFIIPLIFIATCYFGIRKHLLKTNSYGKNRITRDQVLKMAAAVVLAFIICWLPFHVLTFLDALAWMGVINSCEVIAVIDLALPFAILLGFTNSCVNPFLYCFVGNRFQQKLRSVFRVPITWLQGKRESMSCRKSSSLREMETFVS
Type of assay: functional.

In a further assay the target is Histamine H1 receptor (Homo sapiens, UniProt P35367). The format is functional, cell-based.
Chain of Histamine H1 receptor (P35367 whole entry): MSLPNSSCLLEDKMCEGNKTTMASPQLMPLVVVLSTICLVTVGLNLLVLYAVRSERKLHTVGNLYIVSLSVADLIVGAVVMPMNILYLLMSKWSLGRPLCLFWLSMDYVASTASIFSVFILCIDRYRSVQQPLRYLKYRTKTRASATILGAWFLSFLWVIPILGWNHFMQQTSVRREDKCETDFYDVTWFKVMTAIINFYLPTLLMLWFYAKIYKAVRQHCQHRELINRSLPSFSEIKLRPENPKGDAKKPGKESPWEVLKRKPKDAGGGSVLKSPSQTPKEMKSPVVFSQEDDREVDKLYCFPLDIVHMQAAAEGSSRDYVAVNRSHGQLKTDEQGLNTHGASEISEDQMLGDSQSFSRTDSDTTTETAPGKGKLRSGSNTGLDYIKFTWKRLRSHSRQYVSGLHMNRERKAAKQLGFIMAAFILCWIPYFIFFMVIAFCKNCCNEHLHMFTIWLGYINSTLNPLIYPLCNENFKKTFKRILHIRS
In assay [3] the target is T2, Peroxisome proliferator-activated receptor gamma (Homo sapiens, UniProt P37231).
T2 sequence (P37231 whole entry): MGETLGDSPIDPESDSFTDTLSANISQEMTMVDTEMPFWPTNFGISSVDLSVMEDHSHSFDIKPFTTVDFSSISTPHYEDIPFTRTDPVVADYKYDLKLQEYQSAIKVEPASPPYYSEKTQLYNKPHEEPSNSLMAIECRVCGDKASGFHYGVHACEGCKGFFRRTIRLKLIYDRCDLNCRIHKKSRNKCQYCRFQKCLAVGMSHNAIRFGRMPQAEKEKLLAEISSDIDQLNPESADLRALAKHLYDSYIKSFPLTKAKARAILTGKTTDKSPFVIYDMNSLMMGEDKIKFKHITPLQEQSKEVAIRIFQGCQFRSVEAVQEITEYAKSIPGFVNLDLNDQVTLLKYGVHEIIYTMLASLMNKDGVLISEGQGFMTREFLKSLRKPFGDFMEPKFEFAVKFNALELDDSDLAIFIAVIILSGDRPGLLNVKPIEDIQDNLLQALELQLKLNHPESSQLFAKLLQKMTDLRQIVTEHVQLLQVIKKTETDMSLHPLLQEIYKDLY
Type of assay: functional.

Assay [4] concerns the target Gamma-aminobutyric acid receptor subunit alpha-1/alpha-2/beta-2/gamma-2 (Homo sapiens, UniProt P14867+P18507+P47869+P47870). The format is functional, cell-based.
In assay [5] the target is T3, Muscarinic acetylcholine receptor M1 (Homo sapiens, UniProt P11229).
T3 sequence (P11229 whole entry): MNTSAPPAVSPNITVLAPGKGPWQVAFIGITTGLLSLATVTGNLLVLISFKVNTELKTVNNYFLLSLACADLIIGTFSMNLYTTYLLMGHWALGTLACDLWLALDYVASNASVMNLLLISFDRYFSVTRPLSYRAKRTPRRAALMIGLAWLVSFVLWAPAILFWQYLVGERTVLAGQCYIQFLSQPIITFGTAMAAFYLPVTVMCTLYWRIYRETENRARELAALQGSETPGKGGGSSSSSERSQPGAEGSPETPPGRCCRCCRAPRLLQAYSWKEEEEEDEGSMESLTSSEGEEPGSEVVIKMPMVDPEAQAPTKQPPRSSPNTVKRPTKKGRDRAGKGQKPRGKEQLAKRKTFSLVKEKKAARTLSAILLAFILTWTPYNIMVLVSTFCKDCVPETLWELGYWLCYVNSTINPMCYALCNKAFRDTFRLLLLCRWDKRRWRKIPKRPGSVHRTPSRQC

The target of assay [6] is T4, Endothelin receptor type B (Homo sapiens, UniProt P24530).
T4 sequence (P24530 whole entry): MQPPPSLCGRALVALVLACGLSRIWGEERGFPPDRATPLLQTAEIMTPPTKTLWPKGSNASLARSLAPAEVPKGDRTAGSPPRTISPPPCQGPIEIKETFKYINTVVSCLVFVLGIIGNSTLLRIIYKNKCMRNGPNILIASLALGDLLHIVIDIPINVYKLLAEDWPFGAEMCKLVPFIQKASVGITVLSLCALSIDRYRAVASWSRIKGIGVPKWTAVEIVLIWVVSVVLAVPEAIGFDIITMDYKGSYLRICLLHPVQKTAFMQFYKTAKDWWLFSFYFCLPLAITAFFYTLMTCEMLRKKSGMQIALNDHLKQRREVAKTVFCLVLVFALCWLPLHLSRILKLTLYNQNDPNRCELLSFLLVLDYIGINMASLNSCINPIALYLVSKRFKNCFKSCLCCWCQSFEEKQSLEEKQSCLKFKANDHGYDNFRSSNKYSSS

The target in assay [7] is Neurotensin receptor type 1 (Homo sapiens, UniProt P30989).
Chain of Neurotensin receptor type 1 (P30989 whole entry): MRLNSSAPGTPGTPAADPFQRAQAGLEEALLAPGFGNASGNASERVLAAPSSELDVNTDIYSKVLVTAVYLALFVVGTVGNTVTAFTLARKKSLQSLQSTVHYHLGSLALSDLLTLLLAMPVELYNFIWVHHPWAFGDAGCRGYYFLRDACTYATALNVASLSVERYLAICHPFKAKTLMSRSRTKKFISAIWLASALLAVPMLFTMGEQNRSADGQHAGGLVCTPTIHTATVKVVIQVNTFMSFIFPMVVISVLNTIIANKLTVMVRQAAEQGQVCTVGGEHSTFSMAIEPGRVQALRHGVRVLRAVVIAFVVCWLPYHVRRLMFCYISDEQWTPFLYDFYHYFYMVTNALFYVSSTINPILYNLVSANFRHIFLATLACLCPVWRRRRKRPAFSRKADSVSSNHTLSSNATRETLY
A further assay has as its target Cannabinoid receptor 1 (Homo sapiens, UniProt P21554). The format is functional.
Assay [8] deals with T5, Corticotropin-releasing factor receptor 2 (Homo sapiens, UniProt Q13324).
T5 sequence (Q13324 whole entry): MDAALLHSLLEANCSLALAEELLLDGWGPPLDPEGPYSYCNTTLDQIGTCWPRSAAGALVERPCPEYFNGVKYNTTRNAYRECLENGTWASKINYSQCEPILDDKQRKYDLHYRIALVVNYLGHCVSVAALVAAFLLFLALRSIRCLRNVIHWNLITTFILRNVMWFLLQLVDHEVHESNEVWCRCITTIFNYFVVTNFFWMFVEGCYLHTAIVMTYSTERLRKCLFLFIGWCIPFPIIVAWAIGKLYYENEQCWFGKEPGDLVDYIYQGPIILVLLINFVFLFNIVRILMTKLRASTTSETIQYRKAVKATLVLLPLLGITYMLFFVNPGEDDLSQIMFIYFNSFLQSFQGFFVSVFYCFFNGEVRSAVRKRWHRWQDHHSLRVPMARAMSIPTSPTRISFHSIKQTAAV

In another assay the target is Estrogen receptor beta (Homo sapiens, UniProt Q92731).
Chain of Estrogen receptor beta (Q92731 whole entry): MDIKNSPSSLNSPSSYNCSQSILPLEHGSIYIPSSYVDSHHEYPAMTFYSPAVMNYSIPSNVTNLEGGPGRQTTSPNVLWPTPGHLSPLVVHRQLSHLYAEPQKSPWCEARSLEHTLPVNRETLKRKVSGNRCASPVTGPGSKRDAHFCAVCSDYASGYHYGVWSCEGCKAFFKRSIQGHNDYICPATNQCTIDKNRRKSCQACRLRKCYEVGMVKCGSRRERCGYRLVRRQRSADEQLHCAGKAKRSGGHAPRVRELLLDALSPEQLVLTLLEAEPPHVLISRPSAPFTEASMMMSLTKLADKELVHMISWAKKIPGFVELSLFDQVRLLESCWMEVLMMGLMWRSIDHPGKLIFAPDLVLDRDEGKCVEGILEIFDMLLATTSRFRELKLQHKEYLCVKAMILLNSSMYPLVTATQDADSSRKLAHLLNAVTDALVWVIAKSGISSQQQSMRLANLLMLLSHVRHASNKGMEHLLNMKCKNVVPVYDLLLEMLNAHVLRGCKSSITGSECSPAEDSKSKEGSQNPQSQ
Note: assay procedure not described here.

Chain of Cannabinoid receptor 1 (P21554 whole entry): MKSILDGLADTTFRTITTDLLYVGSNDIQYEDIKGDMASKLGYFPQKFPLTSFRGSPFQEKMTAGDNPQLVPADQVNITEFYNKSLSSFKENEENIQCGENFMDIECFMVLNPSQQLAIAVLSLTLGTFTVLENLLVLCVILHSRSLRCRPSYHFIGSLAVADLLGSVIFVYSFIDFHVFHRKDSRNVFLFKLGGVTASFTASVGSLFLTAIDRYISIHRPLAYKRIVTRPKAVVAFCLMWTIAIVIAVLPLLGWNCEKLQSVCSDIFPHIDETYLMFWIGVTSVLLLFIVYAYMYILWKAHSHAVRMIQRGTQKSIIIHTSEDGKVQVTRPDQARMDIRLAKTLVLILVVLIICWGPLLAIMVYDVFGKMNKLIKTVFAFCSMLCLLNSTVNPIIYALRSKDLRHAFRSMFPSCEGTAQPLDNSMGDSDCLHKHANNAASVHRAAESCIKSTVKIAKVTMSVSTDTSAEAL
Chain of Beta-1 adrenergic receptor (P08588 whole entry): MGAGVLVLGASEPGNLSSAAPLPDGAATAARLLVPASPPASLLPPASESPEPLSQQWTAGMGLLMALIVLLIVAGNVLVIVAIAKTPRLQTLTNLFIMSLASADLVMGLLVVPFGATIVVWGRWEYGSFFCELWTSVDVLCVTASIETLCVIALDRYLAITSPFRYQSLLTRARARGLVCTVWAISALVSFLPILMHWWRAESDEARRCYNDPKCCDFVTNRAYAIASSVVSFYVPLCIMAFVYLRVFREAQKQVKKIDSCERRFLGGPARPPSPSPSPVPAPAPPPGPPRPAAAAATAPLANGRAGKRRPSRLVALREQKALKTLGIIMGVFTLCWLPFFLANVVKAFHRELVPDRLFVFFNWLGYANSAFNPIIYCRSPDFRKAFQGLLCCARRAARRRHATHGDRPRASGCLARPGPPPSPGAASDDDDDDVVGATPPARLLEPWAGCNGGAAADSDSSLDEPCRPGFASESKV
Chain of Gamma-aminobutyric acid receptor subunit alpha-1/alpha-2/beta-2/gamma-2 (P14867 whole entry): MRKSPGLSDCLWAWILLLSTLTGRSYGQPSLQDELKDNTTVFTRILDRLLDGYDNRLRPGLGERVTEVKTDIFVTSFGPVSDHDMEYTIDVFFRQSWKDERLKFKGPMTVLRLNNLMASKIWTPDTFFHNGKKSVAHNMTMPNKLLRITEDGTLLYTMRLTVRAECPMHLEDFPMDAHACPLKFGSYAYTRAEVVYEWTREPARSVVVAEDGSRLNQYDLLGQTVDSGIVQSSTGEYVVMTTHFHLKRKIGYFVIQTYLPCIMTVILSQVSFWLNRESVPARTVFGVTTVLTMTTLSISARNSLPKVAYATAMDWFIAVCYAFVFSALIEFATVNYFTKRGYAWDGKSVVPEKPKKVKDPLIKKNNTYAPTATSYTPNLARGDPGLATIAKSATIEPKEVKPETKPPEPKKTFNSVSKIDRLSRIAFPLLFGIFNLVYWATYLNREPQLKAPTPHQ
Chain of Gamma-aminobutyric acid receptor subunit alpha-1/alpha-2/beta-2/gamma-2 (P47870 whole entry): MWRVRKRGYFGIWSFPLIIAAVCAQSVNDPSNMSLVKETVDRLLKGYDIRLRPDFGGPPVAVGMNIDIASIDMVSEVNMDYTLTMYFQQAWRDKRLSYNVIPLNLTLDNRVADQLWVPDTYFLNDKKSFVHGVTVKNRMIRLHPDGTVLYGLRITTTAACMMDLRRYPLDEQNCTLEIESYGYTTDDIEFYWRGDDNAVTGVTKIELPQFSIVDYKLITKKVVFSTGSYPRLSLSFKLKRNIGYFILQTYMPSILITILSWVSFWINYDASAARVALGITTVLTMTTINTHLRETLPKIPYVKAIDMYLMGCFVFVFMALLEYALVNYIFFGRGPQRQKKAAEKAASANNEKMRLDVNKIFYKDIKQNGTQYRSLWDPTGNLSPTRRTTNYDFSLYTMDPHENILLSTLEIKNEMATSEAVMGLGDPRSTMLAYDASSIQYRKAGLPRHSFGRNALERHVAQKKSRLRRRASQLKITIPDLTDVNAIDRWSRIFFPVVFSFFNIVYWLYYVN
Chain of Gamma-aminobutyric acid receptor subunit alpha-1/alpha-2/beta-2/gamma-2 (P18507 whole entry): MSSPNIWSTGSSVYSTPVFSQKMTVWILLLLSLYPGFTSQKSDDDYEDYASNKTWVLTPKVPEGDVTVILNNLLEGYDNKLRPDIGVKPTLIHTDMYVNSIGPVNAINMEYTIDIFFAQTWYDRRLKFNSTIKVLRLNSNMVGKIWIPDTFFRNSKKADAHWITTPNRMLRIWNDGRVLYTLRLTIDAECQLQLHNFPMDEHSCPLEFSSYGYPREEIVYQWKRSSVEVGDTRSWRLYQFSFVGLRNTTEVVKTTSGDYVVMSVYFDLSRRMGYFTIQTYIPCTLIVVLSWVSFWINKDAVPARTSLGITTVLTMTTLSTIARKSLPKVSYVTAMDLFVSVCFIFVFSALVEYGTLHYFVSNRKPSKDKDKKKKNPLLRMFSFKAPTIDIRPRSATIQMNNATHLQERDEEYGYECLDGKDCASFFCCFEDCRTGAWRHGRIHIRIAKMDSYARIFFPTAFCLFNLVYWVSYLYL
Chain of Gamma-aminobutyric acid receptor subunit alpha-1/alpha-2/beta-2/gamma-2 (P47869 whole entry): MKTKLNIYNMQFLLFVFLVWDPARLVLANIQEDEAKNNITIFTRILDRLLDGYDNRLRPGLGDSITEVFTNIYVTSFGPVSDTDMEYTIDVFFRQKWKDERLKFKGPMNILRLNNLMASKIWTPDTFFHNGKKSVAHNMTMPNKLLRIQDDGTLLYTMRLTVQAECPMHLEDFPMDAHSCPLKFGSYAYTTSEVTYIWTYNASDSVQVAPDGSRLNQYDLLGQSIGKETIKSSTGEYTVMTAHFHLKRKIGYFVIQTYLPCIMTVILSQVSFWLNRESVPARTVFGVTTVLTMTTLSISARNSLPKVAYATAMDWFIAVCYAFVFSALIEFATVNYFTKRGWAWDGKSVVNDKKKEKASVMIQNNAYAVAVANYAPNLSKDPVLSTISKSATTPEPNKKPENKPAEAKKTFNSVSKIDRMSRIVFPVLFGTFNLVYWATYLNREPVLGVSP

Broadly, the AC50 is the concentration giving half of the maximal activity seen. A higher AC50 goes with weaker potency. The molecule `C[N+](C)(C)CCOP(=O)([O-])OC[C@H](O)CO` gave a half-maximal activity concentration (AC50) in assay [1] of more than 30 µM.

`CN(C)Cc1nnc2n1-c1ccc(Cl)cc1C(c1ccccc1)=NC2` [ADINAZOLAM] showed an AC50 in [2] of more than 100 µM.

As to `CN(C)C/C=C/C(=O)Nc1cc2c(Nc3ccc(F)c(Cl)c3)ncnc2cc1O[C@H]1CCOC1` [AFATINIB], the AC50 (at Histamine H1 receptor; in [3]; in [4]) was more than 30 µM in each case.

For the molecule `CCC1(c2ccc(N)cc2)CCC(=O)NC1=O` (stereo not drawn) [AMINOGLUTETHIMIDE], in [4], the AC50 is more than 30 µM.

Regarding `O=C(/C=C/c1cccc(S(=O)(=O)Nc2ccccc2)c1)NO` [BELINOSTAT], the concentration at half-maximal activity (AC50) was more than 30 µM in assay [5], more than 10 µM in assay [6], more than 10 µM in assay [7] and more than 10 µM on Cannabinoid receptor 1.

`CC(C)(Oc1ccc(CCNC(=O)c2ccc(Cl)cc2)cc1)C(=O)O` [BEZAFIBRATE] came in with an AC50 in [3] of more than 30 µM.

Turning to `CC(O)(CS(=O)(=O)c1ccc(F)cc1)C(=O)Nc1ccc(C#N)c(C(F)(F)F)c1` (stereo not drawn) [BICALUTAMIDE], the AC50 is more than 30 µM in assay [6]; more than 30 µM in assay [8]; more than 30 µM at Estrogen receptor beta; more than 30 µM in [7]; more than 10 µM on Cannabinoid receptor 1.

Consider `O=C(O)COCCN1CCN(C(c2ccccc2)c2ccc(Cl)cc2)CC1` (stereo not drawn) [CETIRIZINE], for which the AC50 (in assay [6]; in assay [8]; at Estrogen receptor beta; in [7]) was more than 30 µM throughout.

As for `NC[C@H]1CC[C@H](C(=O)Oc2ccc(CCC(=O)O)cc2)CC1` [CETRAXATE], the half-maximal activity concentration (AC50) in assay [4] was more than 30 µM.

As for `C[C@@H]1C[C@H]2[C@@H]3C[C@H](F)C4=CC(=O)C=C[C@]4(C)[C@@]3(F)[C@@H](O)C[C@]2(C)[C@@]1(OC(=O)c1ccco1)C(=O)SCF` [FLUTICASONE FUROATE], the AC50 (in [6]; on Cannabinoid receptor 1) was more than 10 µM in each case.

As to `CNCCc1ccc(OC(=O)C(C)C)c(OC(=O)C(C)C)c1` [IBOPAMINE], the half-maximal activity concentration (AC50) in [1] and in assay [4] was more than 30 µM throughout.

In the case of `CN(C)CCCN1c2ccccc2CCc2ccccc21` [IMIPRAMINE], the AC50 was more than 30 µM in assay [6]; more than 30 µM in assay [8]; more than 100 µM in assay [2]; more than 30 µM at Estrogen receptor beta; more than 30 µM in [7]; more than 10 µM on Cannabinoid receptor 1.

In the case of `COC(=O)C1=C(C)NC(C)=C(C(=O)OCCN2CCN(C(c3ccccc3)c3ccccc3)CC2)C1c1cccc([N+](=O)[O-])c1` (stereo not drawn) [MANIDIPINE 6300], the AC50 in assay [1] was more than 30 µM.

As to `CN(Cc1cnc2nc(N)nc(N)c2n1)c1ccc(C(=O)N[C@@H](CCC(=O)O)C(=O)O)cc1` [METHOTREXATE], the AC50 (in [6]; in [8]; on Estrogen receptor beta; in [7]) was more than 30 µM throughout.

Consider `O=C(O)c1cccnc1Nc1cccc(C(F)(F)F)c1` [NIFLUMIC ACID], for which the concentration at half-maximal activity (AC50) in [2] was more than 100 µM.

As for `OC[C@H]1O[C@@H](n2cnc3c2NC=NC[C@H]3O)C[C@@H]1O` [PENTOSTATIN], the half-maximal activity concentration (AC50) (on Histamine H1 receptor; in [3]; in assay [4]) was more than 30 µM each time.

Turning to `CC(C)c1cccc(C(C)C)c1O` [PROPOFOL], the concentration at half-maximal activity (AC50) was more than 30 µM in [3] and 2 µM in [4].

Turning to `CN[C@@H](C)[C@@H](O)c1ccccc1` [PSEUDOEPHEDRINE], the AC50 (in [6]; in assay [8]; on Estrogen receptor beta; in [7]) was more than 30 µM in each case.

The molecule `CCCN1CC(NS(=O)(=O)N(CC)CC)CC2Cc3c(O)cccc3CC21` (stereo not drawn) [QUINAGOLIDE] registered an AC50 in assay [1] of more than 30 µM.

`O=C1OC(OC(=O)c2cccnc2Nc2cccc(C(F)(F)F)c2)c2ccccc21` (stereo not drawn) [TALNIFLUMATE]: the half-maximal activity concentration (AC50) (on Histamine H1 receptor; in assay [4]) was more than 30 µM each time.

`O=S1(=O)CCN(CN2CCS(=O)(=O)NC2)CN1` [TAUROLIDINE]: the AC50 (at Histamine H1 receptor; in assay [5]; in assay [4]) was more than 30 µM in each case.

In turn, `COc1ccc2c(C(=S)N(C)CC(=O)O)cccc2c1C(F)(F)F` [TOLRESTAT] had an AC50 in assay [5] of more than 30 µM.
